Test results reported in US10736320B2, “Pesticidally active polycyclic derivatives with 5-membered sulfur containing heterocyclic ring systems” (Syngenta Participations AG, priority 2015, dated 2020).

Legend:
[1] = test system: Spodoptera littoralis (Egyptian cotton leaf worm); assay: Insecticidal action against Spodoptera littoralis (Egyptian cotton leaf worm), sprayed cotton leaf discs; assay type: in vivo; conditions: foliar, 72 h, application rate of 200 ppm, L1 larvae, 3 days after infestation, read-out: control (at least one of mortality, anti-feedant effect, and growth inhibition)
Method: Cotton leaf discs were placed on agar in 24-well microtiter plates and sprayed with aqueous test solutions prepared from 10,000 ppm DMSO stock solutions. After drying the leaf discs were infested with five L1 larvae. The samples were assessed for mortality, anti-feedant effect, and growth inhibition in comparison to untreated samples 3 days after infestation. Control of Spodoptera littoralis by a test sample is when at least one of mortality, anti-feedant effect, and growth inhibition is higher than the untreated sample.

[2] = test system: Diabrotica balteata (corn root worm); assay: Insecticidal action against Diabrotica balteata (corn root worm), sprayed maize sprouts; assay type: in vivo; conditions: 96 h, application rate of 200 ppm, L2 larvae, 4 days after infestation
Method: Maize sprouts, placed on an agar layer in 24-well microtiter plates were treated with aqueous test solutions prepared from 10,000 ppm DMSO stock solutions by spraying. After drying, the plates were infested with L2 larvae (6 to 10 per well). The samples were assessed for mortality 4 days after infestation.

[3] = test system: Plutella xylostella (diamond back moth); assay: Insecticidal action against Plutella xylostella (diamond back moth), treated artificial diet; assay type: in vivo; conditions: 120 h, application rate of 200 ppm, L2 larvae, 5 days after infestation, read-out: effect in at least one of the two categories (mortality or growth inhibition)
Method: 24-well microtiter plates with artificial diet were treated with aqueous test solutions prepared from 10,000 ppm DMSO stock solutions by pipetting. After drying, the plates were infested with L2 larvae (10 to 15 per well). The samples were assessed for mortality and growth inhibition in comparison to untreated samples 5 days after infestation.

[4] = test system: Myzus persicae (green peach aphid); assay: Insecticidal action against Myzus persicae (green peach aphid), sprayed sunflower leaf discs; assay type: in vivo; conditions: foliar, 144 h, application rate of 200 ppm, aphid population of mixed ages, 6 days after infestation
Method: Sunflower leaf discs were placed on agar in a 24-well microtiter plate and sprayed with aqueous test solutions prepared from 10,000 ppm DMSO stock solutions. After drying, the leaf discs were infested with an aphid population of mixed ages. The samples were assessed for mortality 6 days after infestation.

[5] = test system: Spodoptera littoralis (Egyptian cotton leaf worm); assay: Insecticidal action against Spodoptera littoralis (Egyptian cotton leaf worm), uptake by lettuce roots from agar; assay type: in vivo; conditions: 144 h, test rate of 12.5 ppm, 6 days after infestation, read-out: effect in at least one of the three categories (mortality, anti-feedancy, or growth inhibition)
Description: Test compounds were applied by pipette from 10,000 ppm DMSO stock solutions into 24-well plates and mixed with agar. Lettuce seeds were placed on the agar and the multi well plate was closed by another plate which contains also agar. After 7 days the roots have absorbed the compound and the lettuce has grown into the lid plate. The lettuce leafs were now cut off into the lid plate. Spodoptera eggs were pipetted through a plastic stencil on a humid gel blotting paper and the plate closed with it. The samples were assessed for mortality, anti-feedant effect and growth inhibition in comparison to untreated samples 6 days after infestation.

Row | melting point [°C] | SMILES | mortality at 200 ppm [1] [%] | mortality at 200 ppm [2] [%] | percent effect (mortality or growth inhibition) at 200 ppm [3] [%] | also measured
1 | – | CCS(=O)(=O)c1cc(C(F)(F)F)ccc1-c1nnc(-c2ccc(C(F)(F)F)nc2)s1 [Compound P1, 2-[2-ethylsulfonyl-4-(trifluoromethyl)phenyl]-5-[6-(trifluoromethyl)-3-pyridyl]-1,3,4-thiadiazole] | ≥ 80 | ≥ 80 | ≥ 80 | –
2 | 170 to 172 | CCSc1cc(C(F)(F)F)ccc1-c1nnc(-c2ccc(C(F)(F)F)nc2)s1 [Compound P2, 2-[2-ethylsulfanyl-4-(trifluoromethyl)phenyl]-5-[6-(trifluoromethyl)-3-pyridyl]-1,3,4-thiadiazole] | – | – | – | –
3 | 143 to 145 | CCSc1cc(C(F)(F)F)ccc1-c1nnc(-c2cncc(C(F)(F)F)c2)s1 [Compound P3, 2-[2-ethylsulfanyl-4-(trifluoromethyl)phenyl]-5-[5-(trifluoromethyl)-3-pyridyl]-1,3,4-thiadiazole] | – | – | – | –
4 | – | CCS(=O)(=O)c1cc(C(F)(F)F)ccc1-c1nnc(-c2cncc(C(F)(F)F)c2)s1 [Compound P4, 2-[2-ethylsulfonyl-4-(trifluoromethyl)phenyl]-5-[5-(trifluoromethyl)-3-pyridyl]-1,3,4-thiadiazole] | ≥ 80 | ≥ 80 | ≥ 80 | mortality at 200 ppm [4]: ≥ 80%; percent control (mortality, anti-feedancy or growth inhibition) at 12.5 ppm [5]: ≥ 80%
5 | 151 to 153 | CCSc1cc(C(F)(F)F)cnc1-c1nnc(-c2cncc(C(F)(F)F)c2)s1 [Compound P5, 2-[3-ethylsulfanyl-5-(trifluoromethyl)-2-pyridyl]-5-[5-(trifluoromethyl)-3-pyridyl]-1,3,4-thiadiazole] | – | – | – | –
6 | – | CCS(=O)(=O)c1cc(C(F)(F)F)cnc1-c1nnc(-c2cncc(C(F)(F)F)c2)s1 [Compound P6, 2-[3-ethylsulfonyl-5-(trifluoromethyl)-2-pyridyl]-5-[5-(trifluoromethyl)-3-pyridyl]-1,3,4-thiadiazole] | ≥ 80 | ≥ 80 | ≥ 80 | –
7 | – | CCSc1cc(C(F)(F)F)ccc1-c1ncc(-c2ccc(C(F)(F)F)nc2)s1 [Compound P7, 2-[2-ethylsulfanyl-4-(trifluoromethyl)phenyl]-5-[6-(trifluoromethyl)-3-pyridyl]thiazole] | – | – | ≥ 80 | –
8 | – | CCS(=O)(=O)c1cc(C(F)(F)F)ccc1-c1ncc(-c2ccc(C(F)(F)F)nc2)s1 [Compound P8, 2-[2-ethylsulfonyl-4-(trifluoromethyl)phenyl]-5-[6-(trifluoromethyl)-3-pyridyl]thiazole] | ≥ 80 | ≥ 80 | ≥ 80 | –
9 | – | CCS(=O)(=O)c1cc(C(F)(F)F)ccc1-c1ncc(-c2cncc(C(F)(F)F)c2)s1 [Compound P9, 2-[2-ethylsulfonyl-4-(trifluoromethyl)phenyl]-5-[5-(trifluoromethyl)-3-pyridyl]thiazole] | ≥ 80 | ≥ 80 | – | –
10 | – | CCS(=O)(=O)c1cc(C(F)(F)F)cnc1-c1nnc(-c2cc(C(F)(F)F)ccn2)s1 [Compound P10, 2-[3-ethylsulfonyl-5-(trifluoromethyl)-2-pyridyl]-5-[4-(trifluoromethyl)-2-pyridyl]-1,3,4-thiadiazole] | ≥ 80 | ≥ 80 | – | –
11 | 110 to 112 | CCS(=O)(=O)c1cc(C(F)(F)F)cnc1-c1nccs1 [Compound P11, 2-[3-ethylsulfonyl-5-(trifluoromethyl)-2-pyridyl]thiazole] | – | – | – | –
12 | 173 to 175 | CCS(=O)(=O)c1cc(C(F)(F)F)cnc1-c1ncc(-c2cc(C(F)(F)F)ccn2)s1 [Compound P12, 2-[3-ethylsulfonyl-5-(trifluoromethyl)-2-pyridyl]-5-[4-(trifluoromethyl)-2-pyridyl]thiazole] | – | – | – | –
13 | 208 to 210 | CCS(=O)(=O)c1cc(C(F)(F)F)cnc1-c1ncc(-c2ccc(C(F)(F)F)cn2)s1 [Compound P13, 2-[3-ethylsulfonyl-5-(trifluoromethyl)-2-pyridyl]-5-[5-(trifluoromethyl)-2-pyridyl]thiazole] | – | – | – | –
14 | – | CCS(=O)(=O)c1cc(C(F)(F)F)cnc1-c1ncc(-c2cncc(C(F)(F)F)c2)s1 [Compound P14, 2-[3-ethylsulfonyl-5-(trifluoromethyl)-2-pyridyl]-5-[5-(trifluoromethyl)-3-pyridyl]thiazole] | ≥ 80 | – | – | –
15 | 228 to 230 | CCS(=O)(=O)c1cc(C(F)(F)F)cnc1-c1ncc(-c2ccc(C(F)(F)F)nc2)s1 [Compound P15, 2-[3-ethylsulfonyl-5-(trifluoromethyl)-2-pyridyl]-5-[6-(trifluoromethyl)-3-pyridyl]thiazole] | – | – | – | –
16 | – | CCS(=O)(=O)c1cc(-c2ncccn2)cnc1-c1nnc(-c2cncc(C(F)(F)F)c2)s1 [Compound P16, 2-(3-ethylsulfonyl-5-pyrimidin-2-yl-2-pyridyl)-5-[5-(trifluoromethyl)-3-pyridyl]-1,3,4-thiadiazole] | – | ≥ 80 | – | –
17 | – | CCS(=O)(=O)c1ccc(-c2ncccn2)nc1-c1nnc(-c2cncc(C(F)(F)F)c2)s1 [Compound P17, 2-(3-ethylsulfonyl-6-pyrimidin-2-yl-2-pyridyl)-5-[5-(trifluoromethyl)-3-pyridyl]-1,3,4-thiadiazole] | – | ≥ 80 | ≥ 80 | –
18 | – | CCS(=O)(=O)c1cc(C2CC2)cnc1-c1nnc(-c2cc(C(F)(F)F)ccn2)s1 [Compound P18, 2-(5-cyclopropyl-3-ethylsulfonyl-2-pyridyl)-5-[4-(trifluoromethyl)-2-pyridyl]-1,3,4-thiadiazole] | ≥ 80 | ≥ 80 | ≥ 80 | –
19 | – | CCS(=O)(=O)c1cc(C2CC2)cnc1-c1nnc(-c2cncc(C(F)(F)F)c2)s1 [Compound P19, 2-(5-cyclopropyl-3-ethylsulfonyl-2-pyridyl)-5-[5-(trifluoromethyl)-3-pyridyl]-1,3,4-thiadiazole] | ≥ 80 | ≥ 80 | ≥ 80 | mortality at 200 ppm [4]: ≥ 80%
20 | – | CCS(=O)(=O)c1ccc(C2CC2)nc1-c1nnc(-c2cncc(C(F)(F)F)c2)s1 [Compound P20, 2-(6-cyclopropyl-3-ethylsulfonyl-2-pyridyl)-5-[5-(trifluoromethyl)-3-pyridyl]-1,3,4-thiadiazole] | ≥ 80 | ≥ 80 | ≥ 80 | –
21 | 193 to 195 | CCS(=O)(=O)c1cc(C(F)(F)F)cnc1-c1nnc(-c2ccc(C(F)(F)F)nc2)s1 [Compound P21, 2-[3-ethylsulfonyl-5-(trifluoromethyl)-2-pyridyl]-5-[6-(trifluoromethyl)-3-pyridyl]-1,3,4-thiadiazole] | – | – | – | –
